Experimental data reported in US20220105051A1, “COMPOUNDS FOR INCREASING MHC-I EXPRESSION AND MODULATING HISTONE DEACETYLASE ACTIVITY” (Cava Healthcare Inc., priority 2019, published 2022).
Entries after “also recorded” stand apart in the source; their conditions may differ.

Test system: CD4+ and CD8+ T cells
Experiment: Analysis of tumour-infiltrating lymphocytes
Assay type: in vivo, C57BL/6 mice
Conditions: after 12 days of treatment, flow cytometry
Description: The metastatic cell line, A9, was grown in the DMEM, as previously described without, the addition of antibiotics (penicillin and streptomycin, P/S). Once cells reached 75-80% confluence, they were trypsinized (0.05%, Gibco) and washed with HBSS (Hanks balanced salt solution). The cells were counted using the Bio-RAD TC20 automated cell counter and suspended to a concentration of […] in HBSS. Thirty-two synergistic female C57BL/6 mice, between the ages 6-8 weeks, were subcutaneously injected in the right flank with 50 μL containing 5×10^4 A9 metastatic tumour cells. Seven days following tumour inoculation i.p. treatment began daily for 12 days. Four treatment groups were studied, with eight animals per group. […] Body weights were measured three times a week and once tumours developed they were measured with calipers and tumour volume was calculated. Twelve days after starting treatment, mice were euthanized and tumours were collected and weighed. The tumours were then processed for flow cytometry analysis. Tumours were cut into small pieces and incubated RPMI (Gibco; with P/S 0.5%, Sodium pyruvate 1%, and L-glutamine 1%) and 3 mg/mL collagenase A (Roche) for one hour at 37° C. with shaking. Dissociated tumour cells were passed through a 100 μm filter and spun down at 15,000×RCF for 3 minutes. The pellet was washed once in FACs buffer (2% FBS in PBS) and spun down. The pellet was next suspended in red blood cell (RBC) lysis buffer and kept at room temperature for 5 minutes before being neutralized by the addition of 5 ml of PBS and spun down. If pellets were still found to contain RBCs this step was repeated. Once all RBCs were removed cells were suspended in FACs buffer to a concentration of 10^7 cells/mL. A total volume of 200 ul of cells from each tumour were added to a 96 well plate (Falcon) and incubated with Fc Blocker (Biolegend, 1:400) for twenty minutes at 4° C. The 96 well plate was spun down at 1,200 rmp for three minutes and supernatant was removed. The cells were then suspended in 150 ul of FACs buffer containing anti-CD8a (PE-Cy7, 1:200, eBioscience) and CD4 (APC, 1:200, Biolegend) antibodies and incubated at 4° Celsius for 20 minutes. The cells were washed twice and spun down using FACs buffer before being to flow cytometry tubes in a final volume of 200 ul of FACs buffer containing 7AAD (Biolegend 1:200). Flow cytometry was performed on LSRII (BDBiosciences) and analysis was done using FlowJo (Flow cytometry Analysis Software).
Analysis of tumour-infiltrating lymphocytes (TILs). Tumour-infiltrating T lymphocyte (either CD4^+ or CD8^+ T cells) infiltration was evaluated in tumours of mice following 2-week treatment with either compounds or controls. Tumours at the site of initial injection were removed from tumour-bearing mice. Following tumour dissociation in the presence of collagenase A (Roche) and erythrocyte lysis, the tumour cells were then washed and prepared as single-cell suspensions to detect TILs. Before staining with antibodies, the cells were incubated with Fc Blocker (Ebiosciences) for 20 minutes at 4° C. The tumour cells were then washed and stained with anti-CD4-APC (Biolegend), anti-CD8-PECy7 (eBiosciences) and 7-AAD (Biolegend) viability stain. Using flow cytometry, 7-AAD positive dead cells were gated out and the remaining population was assessed for CD4^+ and CD8^+ expression. Data were acquired using a BD™ LSR II flow cytometer (BD Biosciences) with FACSDiva™ software and analyzed with FlowJo software (Treestar).

| SMILES | CD4+ T cell infiltration of tumours | CD8+ T cell (CTL) infiltration of tumours |
| --- | --- | --- |
| COc1ccc(C(C)CCC=C(C)C)c(O)c1 (stereo not shown) [P03-97-1] | no significant infiltration or difference; also recorded: did not appear to increase | greatest CD8+ infiltration; also recorded: increase in the CTL infiltration |
| CC(C)=CCCCc1ccc(C)cc1O [P02-113] | no significant infiltration or difference; also recorded: did not appear to increase | no significant change in CTL infiltration |
